Here are results for 23 compounds from US9456601B2, “Pesticides based on vicinal diols” (priority 2001, dated 2016).

Like-named read-outs stand apart in the source and are kept apart here.

The LC50 is the concentration that kills 50% of the test population.

Data set [1] concerns house dust mite Dermatophagoides pteronyssinus. The data set is described as follows: House dust mite immersion test, mortality. The class given is in vivo. The text has this: The utility of the vicinal diols is further illustrated by the results of experiments against the house dust mite Dermatophagoides pteronyssinus according to accepted industry protocols. Mites were sealed in a cotton envelope and briefly immersed (5 seconds) in dilute solutions (2.5%) of selected diols. The mites were examined one hour after immersion and mortality calculated. The results are shown in Table 3 below with comparative results for a proprietary carpet shampoo, permethrin insecticide and water (as controls).

Data set [2] deals with human body louse (Pediculus humanus). Description: LC50 tests against the human body louse. To be noted: for Potency index: LC50 value compared with that of 1,2-decanediol (=100%); for LC50: read-out: LC50 value; for LC50 / LC50 value: tests against lice (Pediculus humanus).
Data set [3] deals with house flies. The class given is in vivo, Musca domestica. The text has this: A further example of the use of the compounds of the present invention is shown by testing decane-1,2-diol against house flies in a standard industry protocol for insecticides.
Data set [4] deals with lice. Description: Immersion of lice in test formulations, mortality. The class given is in vivo. To be noted: immersed for a few seconds and blotted dry. The source says:
(§1) Vicinal diols are readily formulated in aqueous systems using non-toxic co-solvents such as isopropyl alcohol or by use of surfactants such as Tween®. This makes them eminently suitable for inclusion into many household or industrial, pesticidal or cleansing products. In particular they can be incorporated into pharmaceutical preparations for use on humans or animals. The treatment of lice and cockroaches with formulations containing 1,2-octanediol or 1,2-decanediol is tabulated in Table 4 along with control results for the solvent systems employed. In a procedure following standard industry protocols the subject animals were immersed for a few seconds in the test formulations and blotted dry. Mortality after 24 hrs was measured for the lice, after 1 hr for the cockroaches.

The subject of data set [5] is cockroaches. Description: Immersion of cockroaches in test formulations, mortality. The conditions noted are these: immersed for a few seconds and blotted dry. The format is in vivo.
Source text: as §1

The subject of data set [6] is lice. Description: Egg-laying activity of treated lice. The class given is in vivo. To be noted: FIG. 2. The source says:
FIG. 2 is a further graph illustrating a relationship between diol chain length and egg-laying activity of treated lice.

In data set [7] the test system is human body louse (Pediculus humanus). To be noted: in vivo.

For the compound `CCCCCCCCC(O)CO` (racemic) [1,2-Decanediol], in data set [1] (in vivo), the Mortality is recorded as 95%. Also, in data set [2], the Potency index turned out to be 100% and the LC50 stood at 12 mM. Further, the “pediculicidal activity (in words)” value in data set [2] (against lice) is listed as “significantly superior to 1,3-decanediol”. Further, the Mortality result in data set [3] (in vivo) is “More than 80%”.
For `CC1(C)C(C=C(Cl)Cl)C1C(=O)OCc1cccc(Oc2ccccc2)c1` (stereo not drawn) [0.25% Permethrin, Permethrin], in data set [4], the “Lice mortality after 24 hr” value is reported as 100%. In data set [1] (mites in cotton envelope immersed 5 seconds, diols as 2.5% solutions, examined one hour after immersion), this compound registered a Mortality of 100%. In data set [5], the “Cockroach mortality after 1 hr” value was determined as 100%.
In the case of `CCCC(O)C(O)CO` (stereo not drawn) [1,2,3-Hexanetriol], in data set [2], the Potency index result was “Not effective” and the LC50 value entry was “Not calculable”.
Take `OCCCCC(O)CO` (stereo not drawn) [1,2,6-Hexanetriol]: in data set [2], the Potency index result was “Not effective” and the LC50 value entry is “Not calculable”.
For `CCC(O)CO` (stereo not drawn) [1,2-Butanediol] the same measures were “Not effective” and over 700 mmol.
In data set [2], `CCCCC(O)CO` (stereo not drawn) [1,2-Hexanediol] returned a Potency index of 6% and an LC50 value of over 200 mmol.
`CCCCCCC(O)CO` (stereo not drawn) [1,2-Octanediol] came in with a Mortality in data set [1] (in vivo) of 65%. In addition, in data set [2], the Potency index stood at 30% and the LC50 turned out to be 40 mM. Moreover, the “prevention of egg laying (in words)” value in data set [6] is given as “especially efficacious in the prevention of egg laying”.
Take `CC(O)CCO` (stereo not drawn) [1,3-Butanediol]: in data set [2], the Potency index result is reported as “Not effective” and the LC50 value is over 2000 mmol.
Consider `CCCCCCCC(O)CCO` (stereo not drawn) [1,3-Decanediol], for which, in data set [2], the Potency index amounted to 30% and the LC50 was 40 mM.
Regarding `CCCCCC(O)CCO` (stereo not drawn) [1,3-Octanediol], in data set [2], the Potency index result is on record as “Not effective” and the LC50 value was over 400 mmol.
For `CC(O)CCCCO` (stereo not drawn) [1,5-Hexanediol] the same measures were “Not effective” and “Not calculable”.
In the case of `OCCCCCCO` [1,6-Hexanediol], in data set [2], the Potency index result is given as “Not effective”. The LC50 value entry in data set [7] is “Not calculable”.
On to `CCCCCCCCCCO` [1-Decanol], for which, in data set [2], the Potency index stood at 32% and the LC50 was determined as 35 mM.
`CC(O)CCC(C)O` (stereo not drawn) [2,5-Hexanediol]: in data set [2], the Potency index result is listed as “Not effective” and the LC50 value entry is listed as “Not calculable”.
`CCCCCCCCC(C)O` (stereo not drawn) [2-Decanol]: in data set [2], the Potency index amounted to 34% and the LC50 turned out to be 37 mM.
In turn, `CCCC(O)C(CC)CO` (stereo not drawn) [2-Ethyl-1,3-hexanediol] yielded a Potency index in data set [2] of 20%. Moreover, the LC50 in data set [7] came to 60 mM.
As for `CCCCC(CC)CO` (stereo not drawn) [2-Ethyl-1-hexanol], the Potency index in data set [2] is reported as 4%. The LC50 value in data set [7] amounted to 300 mmol.
Consider `CCCCCCCC(CC)C(O)CO` (stereo not drawn) [3-Ethyl-1,2-decanediol], for which, in data set [2], the Potency index entry is recorded as “Not effective” and the LC50 value result is “Not calculable”.
On to `CCCCCCCC(CC)CCO` (stereo not drawn) [3-Ethyl-1-decanol], for which, in data set [2], the Potency index was 20% and the LC50 amounted to 62 mM.
As for `CCCCCCCCC(CCCCCCC)C(O)CO` (stereo not drawn) [3-Octyl-1,2-decanediol], in data set [2], the Potency index is 12% and the LC50 turned out to be 97 mM.
In data set [2], `CCCCCCC(O)CCC` (stereo not drawn) [4-Decanol] showed a Potency index of 6% and an LC50 value of 183 mmol.
Consider `C=CCCCCCCCCO` [9-Decene-1-ol], for which, in data set [2], the Potency index amounted to 36% and the LC50 was 33 mM.
As to `OCCCCCCCCCCO` [decane-1,10-diol], the “insecticidal activity (in words)” value in data set [3] (house flies) is given as “did not exhibit insecticidal activity”.
